Measured values published in patent publication US9090600B2, “Fungicidal 4-substituted-3-{phenyl[(heterocyclylmethoxy)imino]methyl}-1,2,4-oxadizol-5(4H)-one derivatives” (BAYER INTELLECTUAL PROPERTY GMBH, priority 2011, dated 2015).
Marks after values point to notes of the source that are not given here.

Experiments:
[1] = pH 2.7
Phytophthora infestans = type: in vivo; conditions: tomato plants, spray, 500 ppm, grading 5 days after contamination

Row | Compound | LogP [1] | Eff. % (Phytophthora infestans) [%]
1 | Cn1c(/C(=N\OCc2cccc(NC(=O)OCCc3ccccc3F)n2)c2ccccc2)noc1=O [Example 186] | 4.21 [a] | 83
2 | Cn1c(/C(=N\OCc2cccc(NC(=O)c3ccc(Br)cc3)n2)c2ccccc2)noc1=O [Example 187] | 4.14 [a] | 80
3 | CSCCC(=O)Nc1cccc(CO/N=C(/c2ccccc2)c2noc(=O)n2C)n1 [Example 188] | 3.09 [a] | 99
4 | CCC(CC)COC(=O)Nc1cccc(CO/N=C(/c2ccccc2)c2noc(=O)n2C)n1 [Example 192] | 4.78 [a] | 100
5 | CCCCC(C)OC(=O)Nc1cccc(CO/N=C(/c2ccccc2)c2noc(=O)n2C)n1 (stereo not shown) [Example 200] | 4.78 [a] | 98
6 | CCn1c(/C(=N\OCc2cccc(NC(=O)OCc3ccccc3)n2)c2ccccc2)noc1=O [Example 201] | 4.24 [a] | 100
7 | Cn1c(/C(=N\OCc2cccc(NC(=O)c3cc(F)cc(F)c3)n2)c2ccccc2)noc1=O [Example 202] | 3.92 [a] | 98
8 | Cc1cccc(CCOC(=O)Nc2cccc(CO/N=C(/c3ccccc3)c3noc(=O)n3C)n2)c1 [Example 210] | 4.53 [a] | 75
9 | COC(C(=O)Nc1cccc(CO/N=C(/c2ccccc2)c2noc(=O)n2C)n1)c1ccccc1 (stereo not shown) [Example 218] | 3.85 [a] | 80
10 | COc1ccccc1OC(C)C(=O)Nc1nc(CO/N=C(/c2ccccc2)c2noc(=O)n2C)cs1 (stereo not shown) [Example 219] | 3.89 [a] | 85
11 | CCC(C)(C)C(=O)Nc1cccc(CO/N=C(/c2ccccc2)c2noc(=O)n2C)n1 [Example 221] | 3.8 [a] | 100
12 | CCCCCOC(=O)Nc1cccc(CO/N=C(/c2cccc(C)c2)c2noc(=O)n2C)n1 [Example 224] | 4.78 [a] | 93
13 | CC(C)COC(=O)Nc1cccc(CO/N=C(/c2ccccc2)c2noc(=O)n2C)n1 [Example 225] | 4.01 [a] | 99
14 | Cc1ccc(OCC(=O)Nc2nc(CO/N=C(/c3ccccc3)c3noc(=O)n3C)cs2)cc1 [Example 229] | 3.8 [a] | 100
15 | CC(Oc1ccccc1)C(=O)Nc1cccc(CO/N=C(/c2ccccc2)c2noc(=O)n2C)n1 (stereo not shown) [Example 232] | 3.96 [a] | 100
16 | CC(C)=CCCC(C)CC(=O)Nc1cccc(CO/N=C(/c2ccccc2)c2noc(=O)n2C)n1 (stereo not shown) [Example 235] | 4.88 [a] | 100
17 | CC(CC1CCCCC1)Nc1cccc(CO/N=C(/c2ccccc2)c2noc(=O)n2C)n1 (stereo not shown) [Example 236] | 5.14 [a] | 100
18 | Cn1c(/C(=N\OCc2cccc(NC(=O)CC(F)(F)F)n2)c2ccccc2)noc1=O [Example 237] | 3.19 [a] | 97
19 | Cn1c(/C(=N\OCc2csc(NC(=O)OCc3ccccc3)n2)c2ccccc2)noc1=O [Example 239] | 3.73 [a] | 84
20 | Cn1c(/C(=N\OCc2cccc(NC(=O)c3ccccc3Br)n2)c2ccccc2)noc1=O [Example 243] | 3.67 [a] | 99
21 | Cn1c(C(=NOCc2cccc(NC(=O)OC(C)(C)C)n2)c2ccc(F)cc2)noc1=O [Example 246] | 4.06 [a] | 100

Row | Compound | LogP [1] | Eff. % (Phytophthora infestans) [%]
22 | Cn1c(C(=NOCc2cccc(NC(=O)CCCC(C)(C)C)n2)c2ccccc2)noc1=O [Example 247] | 4.53 [a] | 99
23 | Cn1c(C(=NOCc2csc(NC(=O)c3ccc(F)cc3)n2)c2ccccc2)noc1=O [Example 251] | 3.55 [a] | 98
24 | Cn1c(C(=NOCc2csc(NC(=O)c3ccccc3)n2)c2ccccc2)noc1=O [Example 257] | 3.44 [a] | 100
25 | Cn1c(C(=NOCc2cccc(N(C(=O)OC(C)(C)C)C(=O)OC(C)(C)C)n2)c2cccc(F)c2)noc1=O [Example 261] | 4.51 [a] | 100
26 | Cn1c(C(=NOCc2csc(NC(=O)c3cc(F)cc(F)c3)n2)c2ccccc2)noc1=O [Example 263] | 3.8 [a] | 78
27 | Cn1c(C(=NOCc2cccc(NC(=O)Cc3cccs3)n2)c2ccccc2)noc1=O [Example 264] | 3.42 [a] | 94
28 | CCCC(=O)Nc1cccc(CON=C(c2ccccc2)c2noc(=O)n2C)n1 [Example 266] | 3.13 [a] | 100
29 | Cn1c(C(=NOCc2cccc(NC(=O)CCCC3CCCCC3)n2)c2ccccc2)noc1=O [Example 267] | 5.14 [a] | 97
30 | CCCC(=O)Nc1nc(CON=C(c2ccccc2)c2noc(=O)n2C)cs1 [Example 271] | 3.02 [a] | 80
31 | Cc1cccc(C(=NOCc2cccc(NC(=O)OCCc3ccccc3)n2)c2noc(=O)n2C)c1 [Example 272] | 4.49 [a] | 88
32 | CCCCCC(C)OC(=O)Nc1cccc(CO/N=C(/c2ccccc2)c2noc(=O)n2C)n1 (stereo not shown) [Example 285] | 5.19 [a] | 88
33 | CC(C)COC(=O)Nc1nc(CO/N=C(/c2ccccc2)c2noc(=O)n2C)cs1 [Example 286] | 3.71 [a] | 97
34 | Cn1c(/C(=N\OCc2cccc(NC(=O)OCCC#N)n2)c2ccccc2)noc1=O [Example 288] | 2.78 [a] | 97
35 | Cn1c(/C(=N\OCc2csc(NC(=O)c3cccc(Br)c3)n2)c2ccccc2)noc1=O [Example 289] | 4.04 [a] | 98
36 | COc1cccc(C(=NOCc2cccc(NC(=O)OCc3ccccc3)n2)c2noc(=O)n2C)c1 [Example 290] | 4.04 [a] | 75
37 | Cn1c(/C(=N\OCc2cccc(NC(=O)OCCc3ccccc3)n2)c2cccc(F)c2)noc1=O [Example 297] | 4.26 [a] | 95
38 | CCCCCOC(=O)Nc1cccc(CO/N=C(/c2ccccc2)c2noc(=O)n2CC)n1 [Example 300] | 4.72 [a] | 100
39 | Cn1c(/C(=N\OCc2cccc(NC(=O)CCc3ccc(F)cc3)n2)c2ccccc2)noc1=O [Example 301] | 3.81 [a] | 100
40 | CCCCCCCCCC(=O)Nc1cccc(CO/N=C(/c2ccccc2)c2noc(=O)n2C)n1 [Example 303] | 5.54 [a] | 98
41 | C=CC(=O)Nc1cccc(CO/N=C(/c2ccccc2)c2noc(=O)n2C)n1 [Example 304] | 2.77 [a] | 83
42 | Cn1c(/C(=N\OCc2cccc(NC(=O)C3(F)CC3)n2)c2ccccc2)noc1=O [Example 309] | 3.31 [a] | 100

Row | Compound | LogP [1] | Eff. % (Phytophthora infestans) [%]
43 | COc1ccc(CCOC(=O)Nc2cccc(CO/N=C(/c3ccccc3)c3noc(=O)n3C)n2)cc1 [Example 310] | 4.08 [a] | 70
44 | Cn1c(/C(=N\OCc2cccc(NC(=O)COc3ccccc3)n2)c2ccccc2)noc1=O [Example 313] | 3.73 [a] | 100
45 | Cn1c(/C(=N\OCc2cccc(NC(=O)C3CC4C=CC3C4)n2)c2ccccc2)noc1=O (stereo not shown) [Example 323] | 3.68 [a] | 100
46 | CCCC(C)C(=O)Nc1cccc(CO/N=C(/c2cccc(OC)c2)c2noc(=O)n2C)n1 (stereo not shown) [Example 328] | 3.87 [a] | 75
47 | Cn1c(/C(=N\OCc2cccc(NC(=O)c3cccc(Oc4ccccc4)c3)n2)c2ccccc2)noc1=O [Example 329] | 4.61 [a] | 93
48 | Cn1c(/C(=N\OCc2cccc(NC(=O)c3ccccc3I)n2)c2ccccc2)noc1=O [Example 331] | 3.76 [a] | 98
49 | Cn1c(/C(=N\OCc2cccc(NC(=O)Cc3ccccc3Br)n2)c2ccccc2)noc1=O [Example 335] | 3.85 [a] | 99
50 | CCCC(C)COC(=O)Nc1cccc(CO/N=C(/c2ccccc2)c2noc(=O)n2C)n1 (stereo not shown) [Example 337] | 4.83 [a] | 99
51 | Cc1ccc(C(=O)Nc2cccc(CO/N=C(/c3ccccc3)c3noc(=O)n3C)n2)o1 [Example 345] | 3.46 [a] | 99
52 | Cn1c(/C(=N\OCc2cccc(NC(=O)CCc3ccc(Cl)cc3)n2)c2ccccc2)noc1=O [Example 346] | 4.17 [a] | 97
53 | Cn1c(/C(=N\OCc2cccc(NC(=O)C(F)(F)C(F)(F)C(F)(F)F)n2)c2ccccc2)noc1=O [Example 348] | 4.17 [a] | 100
54 | CCC(C)COC(=O)Nc1cccc(CO/N=C(/c2ccccc2)c2noc(=O)n2C)n1 (stereo not shown) [Example 350] | 4.44 [a] | 98
55 | Cn1c(/C(=N\OCc2cccc(NC(=O)c3ccc(Oc4ccccc4)cc3)n2)c2ccccc2)noc1=O [Example 357] | 4.58 [a] | 92
56 | CCCCC(=O)Nc1cccc(CO/N=C(/c2cccc(OC)c2)c2noc(=O)n2C)n1 [Example 358] | 3.55 [a] | 100
57 | CCCCOC(=O)Nc1cccc(CO/N=C(/c2cccc(OC)c2)c2noc(=O)n2C)n1 [Example 361] | 4.06 [a] | 90
58 | COc1cccc(/C(=N/OCc2cccc(NC(=O)CC(C)C)n2)c2noc(=O)n2C)c1 [Example 362] | 3.46 [a] | 71
59 | C=CCCOC(=O)Nc1cccc(CO/N=C(/c2ccccc2)c2noc(=O)n2C)n1 [Example 363] | 3.71 [a] | 99
60 | CC(=O)OC(C)(C)C(=O)Nc1cccc(CO/N=C(/c2ccccc2)c2noc(=O)n2C)n1 [Example 367] | 3.15 [a] | 100
61 | Cc1ccc(CCOC(=O)Nc2cccc(CO/N=C(/c3ccccc3)c3noc(=O)n3C)n2)cc1 [Example 369] | 4.53 [a] | 70
62 | Cn1c(/C(=N\OCc2cccc(NC(=O)OCC(C)(C)C)n2)c2ccccc2)noc1=O [Example 372] | 4.36 [a] | 100
